Source: US12077503B2, “Substituted cyclic amides and their use as herbicides” (FMC CORPORATION, priority 2015, dated 2024)

Assays:
Format in all cases: in vivo
[1] = system: barnyardgrass (Echinochloa crus-galli); assay: Test G Post-Emergence Protocol; settings: Echinochloa crus-galli, post-emergence, 312 h
Method in brief: (§1)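 Foliar application was made 8 days after sowing, using an aqueous spray of the active in acetone/water (50:50) with 0.5% Tween 20, at doses of 15.625, 62.5 or 250 g/ha. Injury was assessed 13 days later, where 100 meant the plant was fully damaged.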

[2] = system: corn (Zea mays); assay: Test G Post-Emergence Protocol; settings: Zea mays, post-emergence, 312 h
Method in brief: as §1

[3] = system: ivy-leaved morning glory (Ipomoea hederacea); assay: Test G Post-Emergence Protocol; settings: Ipomoea, post-emergence, 312 h
Method in brief: as §1

[4] = system: redroot pigweed (Amaranthus retroflexus); assay: Test G Post-Emergence Protocol; settings: Amaranthus retroflexus, post-emergence, 312 h
Method in brief: as §1

[5] = system: giant foxtail (Setaria faberi); assay: Test G Post-Emergence Protocol; settings: Setaria faberi, post-emergence, 312 h
Method in brief: as §1

[6] = system: velvetleaf (Abutilon theophrasti); assay: Test G Post-Emergence Protocol; settings: Abutilon theophrasti, post-emergence, 312 h
Method in brief: as §1

[7] = system: barnyardgrass (Echinochloa crus-galli); assay: Test G Pre-Emergence Protocol; settings: Echinochloa crus-galli, pre-emergence, 312 h, evaluated after 13 days
Method in brief: (§2)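 One day after sowing, pots are treated with a spray of test compound formulated in acetone/water 50:50 plus 0.5% Tween 20, giving 15.625, 62.5 or 250 g/ha. Evaluation on a 0–100 damage scale follows 13 days of glasshouse growth.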

[8] = system: corn (Zea mays); assay: Test G Pre-Emergence Protocol; settings: Zea mays, pre-emergence, 312 h, evaluated after 13 days
Method in brief: as §2

[9] = system: ivy-leaved morning glory (Ipomoea hederacea); assay: Test G Pre-Emergence Protocol; settings: Ipomoea, pre-emergence, 312 h, evaluated after 13 days
Method in brief: as §2

[10] = system: redroot pigweed (Amaranthus retroflexus); assay: Test G Pre-Emergence Protocol; settings: Amaranthus retroflexus, pre-emergence, 312 h, evaluated after 13 days
Method in brief: as §2

[11] = system: giant foxtail (Setaria faberi); assay: Test G Pre-Emergence Protocol; settings: Setaria faberi, pre-emergence, 312 h, evaluated after 13 days
Method in brief: as §2

[12] = system: velvetleaf (Abutilon theophrasti); assay: Test G Pre-Emergence Protocol; settings: Abutilon theophrasti, pre-emergence, 312 h, evaluated after 13 days
Method in brief: as §2

SMILES: CN1C[C@@H](c2ccc(C(F)(F)F)cc2)[C@H](C(=O)Nc2sccc2C#N)C1=O (racemic) [Compound 1520]
- pest or weed control at 15.625 g/ha ([1]; 15.625 g ai/ha, evaluated after 13 days (100=total damage to plant; 0=no damage to plant), read-out: Barnyardgrass damage rating): 0%
- pest or weed control at 62.5 g/ha ([1]; 62.5 g ai/ha, evaluated after 13 days, read-out: Barnyardgrass damage rating (100=total damage to plant; 0=no damage to plant)): 30%
- pest or weed control at 250 g/ha ([1]; 250 g ai/ha, evaluated after 13 days, read-out: damage to plant, Barnyardgrass (100=total damage to plant; 0=no damage to plant)): 60%
- plant injury at 15.625 g/ha ([2]; 15.625 g ai/ha, evaluated after 13 days (100=total damage to plant; 0=no damage to plant), read-out: Corn damage rating): 0%
- plant injury at 62.5 g/ha ([2]; 62.5 g ai/ha, evaluated after 13 days, read-out: Corn damage rating (100=total damage to plant; 0=no damage to plant)): 0%
- plant injury at 250 g/ha ([2]; 250 g ai/ha, evaluated after 13 days, read-out: damage to plant, Corn (100=total damage to plant; 0=no damage to plant)): 20%
- pest or weed control at 15.625 g/ha ([3]; 15.625 g ai/ha, evaluated after 13 days (100=total damage to plant; 0=no damage to plant), read-out: Morningglory, Ivy-leaved damage rating): 10%
- pest or weed control at 62.5 g/ha ([3]; 62.5 g ai/ha, evaluated after 13 days, read-out: Morningglory, Ivy-leaved damage rating (100=total damage to plant; 0=no damage to plant)): 30%
- pest or weed control at 250 g/ha ([3]; 250 g ai/ha, evaluated after 13 days, read-out: damage to plant, Morningglory, Ivy-leaved (100=total damage to plant; 0=no damage to plant)): 40%
- pest or weed control at 15.625 g/ha ([4]; 15.625 g ai/ha, evaluated after 13 days (100=total damage to plant; 0=no damage to plant), read-out: Pigweed, Redroot damage rating): 0%
- pest or weed control at 62.5 g/ha ([4]; 62.5 g ai/ha, evaluated after 13 days, read-out: Pigweed, Redroot damage rating (100=total damage to plant; 0=no damage to plant)): 0%
- pest or weed control at 250 g/ha ([4]; 250 g ai/ha, evaluated after 13 days, read-out: damage to plant, Pigweed, Redroot (100=total damage to plant; 0=no damage to plant)): 10%
- pest or weed control at 15.625 g/ha ([5]; 15.625 g ai/ha, evaluated after 13 days (100=total damage to plant; 0=no damage to plant), read-out: Foxtail, Giant damage rating): 0%
- pest or weed control at 62.5 g/ha ([5]; 62.5 g ai/ha, evaluated after 13 days, read-out: Foxtail, Giant damage rating (100=total damage to plant; 0=no damage to plant)): 30%
- pest or weed control at 250 g/ha ([5]; 250 g ai/ha, evaluated after 13 days, read-out: damage to plant, Foxtail, Giant (100=total damage to plant; 0=no damage to plant)): 70%
- pest or weed control at 15.625 g/ha ([6]; 15.625 g ai/ha, evaluated after 13 days (100=total damage to plant; 0=no damage to plant), read-out: Velvetleaf damage rating): 0%
- pest or weed control at 62.5 g/ha ([6]; 62.5 g ai/ha, evaluated after 13 days, read-out: Velvetleaf damage rating (100=total damage to plant; 0=no damage to plant)): 0%
- pest or weed control at 250 g/ha ([6]; 250 g ai/ha, evaluated after 13 days, read-out: damage to plant, Velvetleaf (100=total damage to plant; 0=no damage to plant)): 10%
- pest or weed control at 15.625 g/ha ([7]; 15.625 g ai/ha, read-out: Barnyard grass damage rating (100=total damage to plant; 0=no damage to plant)): 20%
- pest or weed control at 62.5 g/ha ([7]; 62.5 g ai/ha, 100=total damage to plant, 0=no damage to plant, read-out: plant damage rating, Barnyardgrass): 50%
- pest or weed control at 250 g/ha ([7]; 250 g ai/ha, read-out: Barnyardgrass damage rating (100=total damage to plant; 0=no damage to plant)): 90%
- plant injury at 15.625 g/ha ([8]; 15.625 g ai/ha, read-out: Corn damage rating (100=total damage to plant; 0=no damage to plant)): 0%
- plant injury at 62.5 g/ha ([8]; 62.5 g ai/ha, 100=total damage to plant, 0=no damage to plant, read-out: plant damage rating, Corn): 0%
- plant injury at 250 g/ha ([8]; 250 g ai/ha, read-out: Corn damage rating (100=total damage to plant; 0=no damage to plant)): 0%
- pest or weed control at 15.625 g/ha ([9]; 15.625 g ai/ha, read-out: Morning-glory, Ivy-leaved damage rating (100=total damage to plant; 0=no damage to plant)): 0%
- pest or weed control at 62.5 g/ha ([9]; 62.5 g ai/ha, 100=total damage to plant, 0=no damage to plant, read-out: plant damage rating, Morningglory, Ivy-leaved): 0%
- pest or weed control at 250 g/ha ([9]; 250 g ai/ha, read-out: Morningglory, Ivy-leaved damage rating (100=total damage to plant; 0=no damage to plant)): 0%
- pest or weed control at 15.625 g/ha ([10]; 15.625 g ai/ha, read-out: Pigweed, Redroot damage rating (100=total damage to plant; 0=no damage to plant)): 0%
- pest or weed control at 62.5 g/ha ([10]; 62.5 g ai/ha, 100=total damage to plant, 0=no damage to plant, read-out: plant damage rating, Pigweed, Redroot): 0%
- pest or weed control at 250 g/ha ([10]; 250 g ai/ha, read-out: Pigweed, Redroot damage rating (100=total damage to plant; 0=no damage to plant)): 30%
- pest or weed control at 15.625 g/ha ([11]; 15.625 g ai/ha, read-out: Foxtail, Giant damage rating (100=total damage to plant; 0=no damage to plant)): 20%
- pest or weed control at 62.5 g/ha ([11]; 62.5 g ai/ha, 100=total damage to plant, 0=no damage to plant, read-out: plant damage rating, Foxtail, Giant): 60%
- pest or weed control at 250 g/ha ([11]; 250 g ai/ha, read-out: Foxtail, Giant damage rating (100=total damage to plant; 0=no damage to plant)): 80%
- pest or weed control at 15.625 g/ha ([12]; 15.625 g ai/ha, read-out: Velvetleaf damage rating (100=total damage to plant; 0=no damage to plant)): 0%
- pest or weed control at 62.5 g/ha ([12]; 62.5 g ai/ha, 100=total damage to plant, 0=no damage to plant, read-out: plant damage rating, Velvetleaf): 0%
- pest or weed control at 250 g/ha ([12]; 250 g ai/ha, read-out: Velvetleaf damage rating (100=total damage to plant; 0=no damage to plant)): 0%
